Measurements: PubChem BioAssay AID2060337 (Molecular Pharmacology Branch, DTP, NCI, 2025)

Tested on: 832693-133-R-J1-PDC multi-cell spheroids, viability
Experiment: Anticancer human tumor 832693-133-R-J1-PDC patient-derived head and neck squamous carcinoma cell line growth inhibition [IpAb]
Conditions: for IC50: curve of first compound; for viability, T/C: stronger effect = lower value
Text: Combinatorial screen of targeted agents with ipatasertib and abemaciclib in multi-cell type tumor spheroids
A high-throughput screen of multi-cell type tumor spheroids was designed to identify active combinations of targeted small molecules and ipatasertib or abemaciclib. Complex spheroids include a stromal component modeled by human endothelial cells (HUVEC) and fibroblasts modeled by human mesenchymal stem cells (MSCs). The concentration ranges selected for each drug and investigational agent were based upon clinically achievable concentrations if the clinical Cmax of the agent was known.
Compounds. The drugs and investigational agents: ipatasertib (NSC767898), abemaciclib(NSC768073), selumetinib (NSC741078), trametinib (758246), adavosertib (NSC754352), everolimus (NSC733504), sapanisertib (NSC764658), vemurafenib (NSC761431), venetoclax (NSC766270), copanlisib (NSC809693), apelisib (NSC765974), palbociblib (NSC758247), vemurafenib (NSC761431), dabrafenib (NSC764134), ravoxertinib (NSC781343), BMS-387032 (NSC767048), sotorasib (NSC818433), talazoparib (NSC767125) and afursertib (NSC778305), were obtained from the National Cancer Institute (NCI) Developmental Therapeutics Program Chemical Repository. The FDA-approved anticancer drug set is available from the NCI Developmental Therapeutics Program. […] The stock solutions were prepared in dimethyl sulfoxide (DMSO, Sigma-Aldrich, St. Louis, MO, cat. D2650) at 800-fold the tested concentration and stored at -70 degrees C prior to their use. All drugs and investigational agents were tested over a range starting from a high concentration at or near the clinical Cmax and decreasing in half-log increments. If the clinical Cmax for an agent had not been determined, the highest concentration tested was 10 microM.
NCI60 Cell Culture. NCI60 cell lines were obtained from the NCI Developmental Therapeutics Program Tumor Repository. For each lot of cells, the Repository performed Applied Biosystems AmpFLSTR Identifiler testing with PCR amplification to confirm consistency with the published Identifier STR profile for each cell line. Cells were kept in continuous culture for no more than 20 passages. The optimal seeding densities for each of the cell lines at each time point assessed were determined prior to performing the concentration response studies. Briefly, the NCI60 human tumor lines were grown as monolayers in RPMI 1640 medium supplemented with 10% FBS and 2 mmol/L L-glutamine.
An additional 9 lines were from the NCI60 cell line panel including MDA-MB-231 breast carcinoma, MDA-MB-468 breast carcinoma, MCF7 breast carcinoma, Hs578T breast carcinoma, MALME-3M melanoma, SK-MEL-2 melanoma, SK-OV-3 ovarian carcinoma, DU-145 prostate carcinoma, PC-3 prostate carcinoma, all cell lines along with major genetic alterations are listed on Table 2. Pooled donor human umbilical vein endothelial cells (HUVEC, Lonza, cat. CC-2519) and human mesenchymal stem cells (hMSC, Lonza, cat. PT-2501) were purchased from Lonza (Walkersville, MD).
PDMR cell lines were grown in complete medium (DC medium): Dulbecco's modified Eagle's medium (DMEM)/F12 supplemented with 5% fetal bovine serum (FBS), 2 mM L-glutamine, 100 U/mL penicillin and 100 µg/ml streptomycin, 0.4 µg/ml hydrocortisone, 10 ng/ml epidermal growth factor (EGF) recombinant human protein, 24 µg/mL adenine, and 0.1 mg/mL primocin. During culture from frozen stock vials, PDMR cells were cultured in the same medium containing 10 µM Y-27632 (see Table 3). The PDCs were cultured in complete DMEM/F12 media without 10 microM Y-27632 dihydrochloride for at least two passages prior to the screen. The pooled donor HUVEC and hMSC were cultured in endothelial cell growth medium 2 (PromoCell, Heidelberg, Germany, cat. C-22011) and mesenchymal stem cell growth medium 2 (PromoCell, cat. C-28009), respectively. For all experiments, HUVEC and hMSC were used at passages </=5.
[…]

[1] = second compound 0.1 µM, first compound 0.0316 µM
[2] = second compound 0.1 µM, first compound 0.1 µM
[3] = second compound 0.1 µM, first compound 0.316 µM
[4] = second compound 0.1 µM, first compound 1 µM
[5] = second compound 0.1 µM, first compound 3.16 µM
[6] = second compound 0.1 µM, first compound 10 µM
[7] = second compound 0.316 µM, first compound 0.0316 µM
[8] = second compound 0.316 µM, first compound 0.1 µM
[9] = second compound 0.316 µM, first compound 0.316 µM
[10] = second compound 0.316 µM, first compound 1 µM
[11] = second compound 0.316 µM, first compound 3.16 µM
[12] = second compound 0.316 µM, first compound 10 µM
[13] = second compound 1 µM, first compound 0.0316 µM
[14] = second compound 1 µM, first compound 0.1 µM
[15] = second compound 1 µM, first compound 0.316 µM
[16] = second compound 1 µM, first compound 1 µM
[17] = second compound 1 µM, first compound 3.16 µM
[18] = second compound 1 µM, first compound 10 µM
[19] = second compound 3.16 µM, first compound 0.0316 µM
[20] = second compound 3.16 µM, first compound 0.1 µM
[21] = second compound 3.16 µM, first compound 0.316 µM
[22] = second compound 3.16 µM, first compound 1 µM
[23] = second compound 3.16 µM, first compound 3.16 µM
[24] = second compound 3.16 µM, first compound 10 µM
[25] = second compound 10 µM, first compound 0.0316 µM
[26] = second compound 10 µM, first compound 0.1 µM
[27] = second compound 10 µM, first compound 0.316 µM
[28] = second compound 10 µM, first compound 1 µM
[29] = second compound 10 µM, first compound 3.16 µM
[30] = second compound 10 µM, first compound 10 µM
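Also: spheroids exposed to the drugs for one week before the viability readout.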
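For viability, T/C in this document: 100% = DMSO vehicle control wells.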

Compound | IC50 (second compound 0.1 µM) [nM] | IC50 (second compound 0.316 µM) [nM] | IC50 (second compound 1 µM) [nM] | IC50 (second compound 3.16 µM) [nM] | IC50 (second compound 10 µM) [nM] | viability, T/C [1] [%] | viability, T/C [2] [%] | viability, T/C [3] [%] | viability, T/C [4] [%] | viability, T/C [5] [%] | viability, T/C [6] [%] | viability, T/C [7] [%] | viability, T/C [8] [%] | viability, T/C [9] [%] | viability, T/C [13] [%] | viability, T/C [14] [%] | viability, T/C [19] [%] | viability, T/C [20] [%] | viability, T/C [25] [%] | viability, T/C [26] [%] | further results
C=CCn1c(=O)c2cnc(Nc3ccc(N4CCN(C)CC4)cc3)nc2n1-c1cccc(C(C)(C)O)n1 + CC(C)NCC(C(=O)N1CCN(c2ncnc3c2C(C)CC3O)CC1)c1ccc(Cl)cc1 | 133 | 76.7 | 35.8 | < 31.6 | 42.9 | 86 | 58 | 25.8 | 20.1 | 22.8 | 10.4 | 66.1 | 45.8 | 23 | 51.7 | 35.5 | 48.5 | 36 | 52.4 | 43.2 | viability, T/C [10]: 14.6%; viability, T/C [11]: 14.9%; viability, T/C [12]: 6.24%; viability, T/C [15]: 18.3%; viability, T/C [16]: 12.9%; viability, T/C [17]: 11.6%; viability, T/C [18]: 3.5%; viability, T/C [21]: 25.3%; viability, T/C [22]: 16.1%; viability, T/C [23]: 11.9%; viability, T/C [24]: 3.31%; viability, T/C [27]: 26.1%; viability, T/C [28]: 9.68%; viability, T/C [29]: 6.52%; viability, T/C [30]: 1.52%
CC(C)n1nc(-c2ccc3oc(N)nc3c2)c2c(N)ncnc21 + CC(C)NCC(C(=O)N1CCN(c2ncnc3c2C(C)CC3O)CC1)c1ccc(Cl)cc1 | 78.9 | > 100 | > 100 | > 100 | > 100 | 61 | 47.7 | – | – | – | – | 81 | 52.2 | – | 71.2 | 56.7 | 66.1 | 63.9 | 53 | 51.5 | viability, T/C (second compound 0.1 µM, first compound 0.000316 µM): 88.9%; viability, T/C (second compound 0.1 µM, first compound 0.001 µM): 90.7%; viability, T/C (second compound 0.1 µM, first compound 0.00316 µM): 82.2%; viability, T/C (second compound 0.1 µM, first compound 0.01 µM): 69.3%; viability, T/C (second compound 0.316 µM, first compound 0.000316 µM): 67.5%; viability, T/C (second compound 0.316 µM, first compound 0.001 µM): 73.5%; viability, T/C (second compound 0.316 µM, first compound 0.00316 µM): 75.5%; viability, T/C (second compound 0.316 µM, first compound 0.01 µM): 88.4%; viability, T/C (second compound 1 µM, first compound 0.000316 µM): 59.4%; viability, T/C (second compound 1 µM, first compound 0.001 µM): 74.5%; viability, T/C (second compound 1 µM, first compound 0.00316 µM): 106%; viability, T/C (second compound 1 µM, first compound 0.01 µM): 97.2%; viability, T/C (second compound 3.16 µM, first compound 0.000316 µM): 68.9%; viability, T/C (second compound 3.16 µM, first compound 0.001 µM): 98.9%; viability, T/C (second compound 3.16 µM, first compound 0.00316 µM): 106%; viability, T/C (second compound 3.16 µM, first compound 0.01 µM): 69.2%; viability, T/C (second compound 10 µM, first compound 0.000316 µM): 77%; viability, T/C (second compound 10 µM, first compound 0.001 µM): 96.2%; viability, T/C (second compound 10 µM, first compound 0.00316 µM): 69.7%; viability, T/C (second compound 10 µM, first compound 0.01 µM): 45.4%
CCCS(=O)(=O)Nc1ccc(F)c(C(=O)c2c[nH]c3ncc(-c4ccc(Cl)cc4)cc23)c1F + CC(C)NCC(C(=O)N1CCN(c2ncnc3c2C(C)CC3O)CC1)c1ccc(Cl)cc1 | 8040 | > 10000 | > 10000 | > 10000 | > 10000 | 99.1 | 102 | 92.5 | 91.1 | 88.1 | 41.4 | 79.5 | 79.2 | 93 | 60.1 | 66.3 | 54.2 | 54.8 | 53.5 | 60.5 | viability, T/C [10]: 92.9%; viability, T/C [11]: 110%; viability, T/C [12]: 56.9%; viability, T/C [15]: 66.7%; viability, T/C [16]: 85.6%; viability, T/C [17]: 139%; viability, T/C [18]: 103%; viability, T/C [21]: 62.6%; viability, T/C [22]: 82.2%; viability, T/C [23]: 126%; viability, T/C [24]: 92%; viability, T/C [27]: 61.5%; viability, T/C [28]: 68.7%; viability, T/C [29]: 98.8%; viability, T/C [30]: 56.1%
